Read-outs that look alike come from different tables or passages of the source.

Assay [1] addresses GPIIb-IIIa (fibrinogen receptor, αIIbβ3) (Homo sapiens, UniProt P05106+P08514). The assay is described as follows: Competitive binding to GPIIb-IIIa with [3H]-SK&F-107260 (inhibition of RGD-mediated GPIIb-IIIa binding).
Protocol: Ten units of outdated, washed human platelets (obtained from Red Cross) were lyzed by gentle stirring in 3% octylglucoside, 20 mM Tris-HCl, pH 7.4, 140 mM NaCl, 2 mM CaCl2 at 4° C. for 2 h. The lysate was centrifuged at 100,000 g for 1 h. The supernatant obtained was applied to a 5 mL lentil lectin sepharose 4B column (E.Y. Labs) preequilibrated with 20 mM Tris-HCl, pH 7.4, 100 mM NaCl, 2 mM CaCl2, 1% octylglucoside (buffer A). After 2 h incubation, the column was washed with 50 mL cold buffer A. The lectin-retained GPIIb-IIIa was eluted with buffer A containing 10% dextrose. All procedures were performed at 4° C.
A mixture of phosphatidylserine (70%) and phosphatidylcholine (30%) (Avanti Polar Lipids) were dried to the walls of a glass tube under a stream of nitrogen. […] The mixture was resuspended and sonicated in a bath sonicator for 5 min.
The binding assay was performed in a 96-well filtration plate assembly. (Millipore Corporation, Bedford, Mass.) using 0.22 um hydrophilic durapore membranes. The wells were precoated with 0.2 mL of 10 μg/mL polylysine (Sigma Chemical Co., St. Louis, Mo.) at room temperature for 1 h to block nonspecific binding. Various concentrations of unlabeled benzadiazapines were added to the wells in quadruplicate. […] The mixtures were incubated for 1 h at room temperature. […] Bound radioactivity remaining on the filters was counted in 1.5 mL Ready Solve (Beckman Instruments, Fullerton, Calif.) in a Beckman Liquid Scintillation Counter (Model LS6800), with 40% efficiency. […] All data points are the mean of quadruplicate determinations.
Competition binding data were analyzed by a nonlinear least-squares curve fitting procedure.
Assay [2] has as its target T1, αvβ3 (vitronectin receptor) (Homo sapiens, UniProt P05106+P06756).
T1 construct: Human placenta or human platelet αvβ3 (0.1-0.3 mg/mL) in buffer T; from tissue; host or cells: human placenta or human platelets
Put plainly: Solid-phase [3H]-SK&F-107260 binding to αvβ3 (inhibition of vitronectin binding). The settings on record: for ratio* (enhanced binding to vitronectin receptor vs fibrinogen receptor = αIIbβ3/αVβ3): selectivity αIIbβ3/αVβ3. The procedure:
Inhibition of Vitronectin Binding
0.1-0.2 μg of αvβ3 was added per well. The plates were incubated overnight at 4° C. […] Following incubation the wells were aspirated completely and washed twice with 0.2 mL buffer A.
This solution is then diluted to the required final compound concentration.
The plates were incubated for 1 hr at room temperature. Following incubation the wells were aspirated completely and washed once with 0.2 mL of ice cold buffer A in a well-to-well fashion.

T1 sequence (P06756 31-889 limits assumed): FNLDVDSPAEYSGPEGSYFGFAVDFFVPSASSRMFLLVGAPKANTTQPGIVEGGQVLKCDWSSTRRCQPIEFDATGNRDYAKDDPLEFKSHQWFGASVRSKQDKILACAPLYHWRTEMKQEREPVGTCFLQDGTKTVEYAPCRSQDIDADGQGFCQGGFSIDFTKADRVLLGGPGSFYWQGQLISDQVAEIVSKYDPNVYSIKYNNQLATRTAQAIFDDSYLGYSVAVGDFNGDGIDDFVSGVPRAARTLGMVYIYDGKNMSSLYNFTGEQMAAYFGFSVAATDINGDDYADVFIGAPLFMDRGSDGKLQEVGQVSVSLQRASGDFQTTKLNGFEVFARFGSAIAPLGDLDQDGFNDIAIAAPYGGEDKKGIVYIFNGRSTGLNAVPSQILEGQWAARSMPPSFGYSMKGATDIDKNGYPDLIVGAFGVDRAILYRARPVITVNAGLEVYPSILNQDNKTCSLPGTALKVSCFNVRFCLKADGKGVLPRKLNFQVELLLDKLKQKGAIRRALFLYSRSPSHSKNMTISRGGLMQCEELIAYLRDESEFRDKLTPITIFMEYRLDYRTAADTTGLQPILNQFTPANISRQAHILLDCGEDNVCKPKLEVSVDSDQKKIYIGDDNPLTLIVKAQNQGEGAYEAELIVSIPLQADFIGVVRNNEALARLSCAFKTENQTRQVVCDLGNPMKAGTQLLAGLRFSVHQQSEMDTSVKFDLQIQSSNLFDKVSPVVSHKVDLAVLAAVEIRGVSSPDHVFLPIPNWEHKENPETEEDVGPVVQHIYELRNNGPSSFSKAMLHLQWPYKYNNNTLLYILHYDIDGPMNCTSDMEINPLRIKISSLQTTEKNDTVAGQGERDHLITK
T1 sequence (P06756 891-1048 partner limits assumed): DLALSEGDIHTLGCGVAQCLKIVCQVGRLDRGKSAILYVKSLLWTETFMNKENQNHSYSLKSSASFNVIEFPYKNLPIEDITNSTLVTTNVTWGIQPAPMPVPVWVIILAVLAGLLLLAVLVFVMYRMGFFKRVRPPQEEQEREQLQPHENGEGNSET
T1 sequence (P05106 27-788): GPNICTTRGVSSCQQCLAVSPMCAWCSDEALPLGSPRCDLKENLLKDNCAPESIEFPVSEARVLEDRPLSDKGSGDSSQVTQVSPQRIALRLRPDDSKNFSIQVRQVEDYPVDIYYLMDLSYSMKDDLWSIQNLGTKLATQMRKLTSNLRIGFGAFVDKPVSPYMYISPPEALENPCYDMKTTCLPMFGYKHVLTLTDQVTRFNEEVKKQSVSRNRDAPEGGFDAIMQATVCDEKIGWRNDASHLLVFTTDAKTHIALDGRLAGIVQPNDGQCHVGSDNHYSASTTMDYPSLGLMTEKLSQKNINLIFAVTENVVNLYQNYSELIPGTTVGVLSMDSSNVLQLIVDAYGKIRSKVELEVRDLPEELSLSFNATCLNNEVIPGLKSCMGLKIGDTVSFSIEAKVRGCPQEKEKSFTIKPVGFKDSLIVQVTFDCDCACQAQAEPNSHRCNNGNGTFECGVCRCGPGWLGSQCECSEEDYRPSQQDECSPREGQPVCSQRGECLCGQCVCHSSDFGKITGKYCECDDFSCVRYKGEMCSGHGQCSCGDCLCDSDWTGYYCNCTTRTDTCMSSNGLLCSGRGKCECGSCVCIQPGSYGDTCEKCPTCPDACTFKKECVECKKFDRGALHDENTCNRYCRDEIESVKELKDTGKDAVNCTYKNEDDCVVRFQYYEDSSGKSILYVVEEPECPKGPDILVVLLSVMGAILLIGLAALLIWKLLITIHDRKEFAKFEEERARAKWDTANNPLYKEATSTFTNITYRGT
Chain of GPIIb-IIIa (fibrinogen receptor, αIIbβ3) (P08514 32-887 limits assumed): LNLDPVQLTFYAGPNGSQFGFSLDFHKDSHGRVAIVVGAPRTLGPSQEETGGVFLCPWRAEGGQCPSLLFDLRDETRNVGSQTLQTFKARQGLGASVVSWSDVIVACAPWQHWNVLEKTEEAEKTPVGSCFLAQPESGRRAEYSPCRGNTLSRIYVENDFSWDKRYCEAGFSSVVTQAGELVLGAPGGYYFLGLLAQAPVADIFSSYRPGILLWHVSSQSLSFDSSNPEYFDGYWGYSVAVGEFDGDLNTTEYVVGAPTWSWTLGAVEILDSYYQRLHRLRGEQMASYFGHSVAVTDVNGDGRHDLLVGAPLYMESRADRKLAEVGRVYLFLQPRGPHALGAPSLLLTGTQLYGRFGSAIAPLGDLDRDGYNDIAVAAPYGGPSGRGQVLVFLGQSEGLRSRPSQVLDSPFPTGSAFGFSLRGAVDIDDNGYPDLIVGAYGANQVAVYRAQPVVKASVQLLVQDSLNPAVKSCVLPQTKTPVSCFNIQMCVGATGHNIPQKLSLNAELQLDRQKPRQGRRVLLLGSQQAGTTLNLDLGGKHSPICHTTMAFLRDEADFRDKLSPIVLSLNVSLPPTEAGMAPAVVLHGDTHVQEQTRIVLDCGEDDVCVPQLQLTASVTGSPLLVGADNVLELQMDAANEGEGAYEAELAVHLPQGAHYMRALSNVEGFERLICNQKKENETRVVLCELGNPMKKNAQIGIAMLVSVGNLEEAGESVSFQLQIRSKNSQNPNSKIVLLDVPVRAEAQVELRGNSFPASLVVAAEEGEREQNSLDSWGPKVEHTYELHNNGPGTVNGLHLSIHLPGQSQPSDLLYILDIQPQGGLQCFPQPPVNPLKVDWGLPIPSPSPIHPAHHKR
Chain of GPIIb-IIIa (fibrinogen receptor, αIIbβ3) (P08514 891-1039 partner limits assumed): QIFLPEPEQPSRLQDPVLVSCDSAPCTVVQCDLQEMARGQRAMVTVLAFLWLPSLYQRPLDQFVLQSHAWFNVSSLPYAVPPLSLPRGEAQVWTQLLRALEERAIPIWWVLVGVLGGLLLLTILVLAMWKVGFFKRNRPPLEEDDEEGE
Chain of GPIIb-IIIa (fibrinogen receptor, αIIbβ3) (P05106 27-788): as the sequence (P05106 27-788) above

In the case of `CN(CC(O)c1ccccc1)C(=O)c1ccc2c(c1)CN(C)C(=O)C(CC(=O)O)C2` (racemic) [Example 16, (±)-8-[[[(2-hydroxy-2-phenyl)ethyl]methylamino]carbonyl]-2-methyl-3-oxo-2,3,4,5-tetrahydro-1H-2-benzazepine-4-acetic acid], the Ki in assay [1] amounted to 28 µM; in assay [2] (read-out: αVβ3), 9.5 µM. Moreover, in assay [2], the “ratio* (enhanced binding to vitronectin receptor vs fibrinogen receptor = αIIbβ3/αVβ3)” value (“ratio*” below) was determined as 2.9.
In the case of `CN1Cc2cc(C(=O)N3CCN(c4ncccn4)CC3)ccc2NC(CC(=O)O)C1=O` (racemic) [Example 14, (±)-4-methyl-3-oxo-7-[1-[4-(2-pyrmidinyl)piperazinyl]carbonyl]-2,3,4,5-tetrahydro-1H-1,4-benzodiazepine-2-acetic acid], the figures for the Ki in assay [1] and in assay [2] (read-out: αVβ3) were over 50 µM and 6.2 µM, respectively. In assay [2], the “ratio*” value is over 8.
As to `CN1Cc2cc(C(=O)N3CCN(c4ccccc4)CC3)ccc2NC(CC(=O)O)C1=O` (racemic) [Example 9, (±)-4-methyl-3-oxo-7-[1-(4-phenylpiperazinyl)carbonyl]-2,3,4,5-tetrahydro-1H-1,4-benzodiazepine-2-acetic acid], the Ki is over 100 µM in assay [1] and 9.23 µM in assay [2] (displacement of 5.0 nM [3H]-SK&F-107260 from human placenta or platelet αvβ3, table does not say whether IC50 or Ki, method derives Ki, read-out: αVβ3). Besides, the “ratio*” value in assay [2] was over 11.
For the compound `CN1Cc2cc(C(=O)N3CCNCC3)ccc2NC(CC(=O)O)C1=O` (racemic) [Example 10, (±)-4-methyl-3-oxo-7-[(1-piperazinyl)carbonyl]-2,3,4,5-tetrahydro-1H-1,4-benzodiazepine-2-acetic acid], the results for the Ki in assay [1] and in assay [2] (read-out: αVβ3) were 2.13 µM and 1.1 µM, respectively. Also, in assay [2], the “ratio*” value was over 1.9.
In the case of `CN1Cc2cc(NC(=O)CNc3ccccn3)ccc2CC(CC(=O)O)C1=O` (racemic) [Example 18, (±)-8-[[(2-(2-pyridinylamino)acetyl]amino]-2-methyl-3-oxo-2,3,4,5-tetrahydro-1H-2-benzazepine-4-acetic acid], the Ki in assay [1] turned out to be 30 µM; in assay [2] (read-out: αVβ3), 1.3 µM. Moreover, the “ratio*” value in assay [2] is recorded as 23.
The like results for `CN1Cc2cc(NC(=O)OCc3ccccc3)ccc2CC(CC(=O)O)C1=O` (racemic) [Example 6, (±)-8-[(benzyloxycarbonyl)amino]-2-methyl-3-oxo-2,3,4,5-tetrahydro-1H-2-benzazepine-4-acetic acid] were, in that order, 17.5 µM, 7.5 µM and 2.3.
Turning to `CN1Cc2cc(NC(=O)CCN)ccc2CC(CC(=O)O)C1=O` (racemic) [Example 21, (+/±)-8-[(3-aminopropanoyl)amino]-2-methyl-3-oxo-2,3,4,5-tetrahydro-1H-2-benzazepine-4-acetic acid], the Ki in assay [1] came out at 52 µM; in assay [2] (read-out: αVβ3), 0.85 µM. Also, the “ratio*” value in assay [2] is 61.
With `CN1Cc2cc(NC(=O)c3ccccn3)ccc2CC(CC(=O)O)C1=O` (racemic) [Example 5, (±)-2-methyl-3-oxo-8-[[2-(pyridinyl)carbonyl]amino]-2,3,4,5-tetrahydro-1H-2-benzazepine-4-acetic acid], the Ki is over 50 µM in assay [1] and 15.3 µM in assay [2] (read-out: αVβ3). For the same compound, the “ratio*” value in assay [2] is listed as over 3.
As for `CN1Cc2cc(NC(=O)CN)ccc2CC(CC(=O)O)C1=O` (racemic) [Example 20, (±)-8-[(2-aminoacetyl)amino]-2-methyl-3-oxo-2,3,4,5-tetrahydro-1h-2-benzazepine-4-acetic acid], the Ki is 45 µM in assay [1] and 1.55 µM in assay [2] (read-out: αVβ3). The “ratio*” value in assay [2] is 29.
The like results for `Nc1ccc(NC(=O)c2ccc3c(c2)CN(CCc2ccccc2)C(=O)C(CC(=O)O)N3)cn1` (racemic) [Example 3, (±)-7-[[(6-amino-3-pyridinyl)amino]carbonyl]-3-oxo-4-(2-phenylethyl)-2,3,4,5-tetrahydro-1H-1,4-benzodiazepine-2-acetic acid] were, in that order, 110 µM, 9.18 µM and 12.
The like results for `CN1Cc2cc(C(=O)N3CCC(N4CCCCC4)CC3)ccc2NC(CC(=O)O)C1=O` (racemic) [Example 11, (±)-4-methyl-3-oxo-7-[1-[4-(1-piperidinyl)piperidinyl]carbonyl]-2,3,4,5-tetrahydro-1H-1,4-benzodiazepine-2-acetic acid] were, in that order, 20.1 µM, 1.45 µM and 14.
The like results for `CN1Cc2cc(NC(=O)[C@@H](N)Cc3ccccc3)ccc2CC(CC(=O)O)C1=O` (mixture of isomers) [Example 15, 8-[[2S-amino-3-phenylpropanoyl]amino]-2-methyl-3-oxo-2,3,4,5-tetrahydro-1H-2-benzazepine-4RS-acetic acid] were, in that order, 37.5 µM, 3.9 µM and 9.6.
`CN1Cc2cc(C(=O)Nc3cccc(C(N)=O)c3)ccc2NC(CC(=O)O)C1=O` (racemic) [Example 8, (±)-7-[[[3-(aminocarbonyl)phenyl]amino]carbonyl]-4-methyl-3-oxo-2,3,4,5-tetrahydro-1H-1,4-benzodiazepine-2-acetic acid]: the Ki in assay [1] is over 50 µM; in assay [2] (read-out: αVβ3), 12.3 µM. The “ratio*” value in assay [2] is listed as over 4.
Turning to `CN1Cc2cc(C(=O)N3CCN(Cc4ccccc4)CC3)ccc2NC(CC(=O)O)C1=O` (racemic) [Example 13, (±)-4-methyl-3-oxo-7-[1-[4-(phenylmethyl)piperazinyl]carbonyl]2,3,4,5-tetrahydro-1H-1,4-benzodiazepine-2-acetic acid], the Ki in assay [1] was determined as 15.4 µM; in assay [2] (read-out: αVβ3), 9.5 µM. The “ratio*” value in assay [2] is 1.62.
The like results for `CN(CCO)C(=O)c1ccc2c(c1)CN(C)C(=O)C(CC(=O)O)N2` (racemic) [Example 17, (±)-7-[[[N-(2-hydroxyethyl)-N-methyl]amino]carbonyl]-4-methyl-3-oxo-2,3,4,5-tetrahydro-1H-1,4-benzodiazepine-2-acetic acid] were, in that order, over 50 µM, 15.2 µM and over 3.
Take `CN1Cc2cc(C(=O)NCc3cccnc3)ccc2NC(CC(=O)O)C1=O` (racemic) [Example 22, (±)-4-methyl-3-oxo-7-[[[(3-pyridinyl)methyl]amino]carbonyl]-2,3,4,5-tetrahydro-1H-1,4-benzodiazepine-2-acetic acid]: the Ki in assay [1] came to 27 µM. In addition, in assay [2], the Ki turned out to be 9.02 µM and the “ratio*” value worked out at 3.

These data come from patent US6458784B1, “Vitronectin receptor antagonists” (priority 1995, dated 2002).
